Source: patent US20190016689A1, “NOVEL FLUORINATED QUINAZOLINE DERIVATIVES AS EGFR INHIBITORS” (TRILLIUM THERAPEUTICS INC., priority 2016, published 2019)

How the values were obtained:
P-gp = experiment: in vitro; conditions: human, Caco-2, pH 7.4
Protocol: At this stage of growth, cell monolayers were fully polarized and differentiated.
The permeability assay buffer was Hanks Balanced Salt Solution containing 10 mM HEPES and 15 mM glucose at a pH of 7.4. The dosing buffer contained 5 μM metoprolol (positive control), 5 μM atenolol (negative control) and 100 μM lucifer yellow. The buffer in the receiver chamber also contained 1% bovine serum albumin (BSA). The dosing solution concentration was 5 μM in the assay buffer. Digoxin (20 μM) was used as Pgp substrate control.
The known Pgp inhibitor was co-dosed at 50 μM with compound at 5 μM.
Cell monolayers were dosed on the apical side (A-to-B) or basolateral side (B-to-A) and incubated at 37° C. in a shaker (65 rpm). Samples were taken from the donor and receiver chambers at 120 minutes. Each determination was performed in duplicate.
Narrow-window mass extraction LC/MS analysis was performed for all samples from this study using a Waters Xevo quadrupole time-of-flight (QTof) mass spectrometer, to determine relative peak areas of parent compound. The percent of transported drug was calculated based on these peak areas, relative to the initial, dosing concentration.

CYP 3A4 = CYP 3A4 (Homo sapiens, UniProt P08684); experiment: CYP450 inhibition; assay type: in vitro ADME; conditions: Testosterone
Protocol: Prepare stock solutions of the test compound and positive control compounds described in Table 8 in DMSO at 0, 0.2, 1, 2, 10, 50, 200, 2000 and 10000 μM. Transfer 1 μL of the stock solutions to the Incubation Plate. The final concentrations of test compound or positive control compound are 0, 0.001, 0.005, 0.01, 0.05, 0.25, 1, 10 and 50 μM. All experiments are performed in duplicate.

hepatocytes = experiment: Metabolic stability (hepatocytes); assay type: in vitro ADME; conditions: 1 μM
Protocol: a) Place incubation medium (William's E Medium supplemented with GlutaMAX) and hepatocyte thawing medium in a 37° C. water bath, and allow warming for at least 15 minutes prior to use. b) Remove a vial of cryopreserved hepatocytes from storage, ensuring that vials remain at cryogenic temperatures until thawing process ensues. Thaw the cells by placing the vial in a 37° C. water bath and gently shaking the vials for 2 minutes. After thawing is completed, spray vial with 70% ethanol, transfer the vial to a biosafety cabinet. c) Use wide-bore pipette tip to transfer hepatocytes into 50 mL conical tube containing thawing medium. Place the 50 mL conical tube into a centrifuge and spin at 100 g for 10 minutes. Upon completion of spin, aspirate thawing medium and resuspend hepatocytes in enough incubation medium to yield ˜1.5×10^6 cells/mL. d) Using a Trypan Blue exclusion, count cells and determine the viable cell density. Cells with poor viability (<75% viability) are not acceptable for use. Dilute cells with incubation medium to a working cell density of 0.5×10^6 viable cells/mL. e) A portion of the hepatocytes at 0.5×10^6 viable cells/mL was boiled for 5 min prior to adding to the plate as negative control to eliminate the enzymatic activity so that little or no substrate turnover should be observed. The boiled hepatocytes are used to prepare negative control samples, which used to exclude the misleading factor that resulted from instability of chemical itself. Negative control wells are prepared in duplicate.
a) Pipette 198 μL of hepatocytes into each wells of a 96-well non-coated plate. Place the plate in the CO2 incubator at 37° C. on an orbital shaker to allow the hepatocytes to warm for 10 minutes. b) Pipette 2 μL of the 100 μM test compounds or positive control into respective wells of the 96-well plate to start the reaction. c) Return the plate to the incubator and place on an orbital shaker with a shaking speed of 150 rpm. The reaction for each compound will be performed in duplicate.
a) Remove 25 μL aliquots of reaction mixture at time points of 0, 15, 30, 60, 90 and 120 minutes. b) The aliquots are then mixed with 6 volumes (150 μL) of acetonitrile containing internal standards (IS: 100 nM alprazolam, 200 nM labetalol, and 2 μM ketoprofen) to terminate the reaction. Centrifuge the plate for 20 minutes at 3,800 g. Aliquots of 100 μL of the supernatants will be mixed with 100 μL ultrapure water and used for LC/MS/MS analysis.

Chain of CYP 3A4 (P08684 whole entry): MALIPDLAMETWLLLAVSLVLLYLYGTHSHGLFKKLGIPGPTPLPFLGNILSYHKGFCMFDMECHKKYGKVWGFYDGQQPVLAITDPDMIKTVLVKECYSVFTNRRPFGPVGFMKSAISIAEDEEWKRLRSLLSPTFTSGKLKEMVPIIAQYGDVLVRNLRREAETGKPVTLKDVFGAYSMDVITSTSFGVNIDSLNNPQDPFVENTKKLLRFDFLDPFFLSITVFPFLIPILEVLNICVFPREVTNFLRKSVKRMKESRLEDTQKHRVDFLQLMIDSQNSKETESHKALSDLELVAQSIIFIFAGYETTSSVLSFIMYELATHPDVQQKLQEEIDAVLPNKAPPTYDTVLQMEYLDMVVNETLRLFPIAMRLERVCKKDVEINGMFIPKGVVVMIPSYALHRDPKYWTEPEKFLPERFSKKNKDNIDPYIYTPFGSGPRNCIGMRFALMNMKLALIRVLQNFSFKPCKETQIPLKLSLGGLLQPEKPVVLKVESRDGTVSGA

CN(C)C/C=C/C(=O)Nc1cc2c(Nc3cccc(Cl)c3F)ncnc2cc1OCCOC(F)F.O=C(O)/C=C\C(=O)O [Example I-5-MA, (E)-N-[4-(3-chloro-2-fluoro-anilino)-7-[2-(difluoromethoxy)ethoxy]quinazolin-6-yl]-4-(dimethylamino)but-2-enamide dimaleic acid salt]
efflux ratio at 120 min, 5 µM (P-gp): 0.48 | IC50 (CYP 3A4): 42 µM | % Remaining @ 120 min (hepatocytes; Dog hepatocytes): 47.29% | % Remaining @ 120 min (hepatocytes; Human hepatocytes): 82.95% | % Remaining @ 120 min (hepatocytes; Monkey hepatocytes): 21.97% | % Remaining @ 120 min (hepatocytes; Mouse hepatocytes): 36.27% | % Remaining @ 120 min (hepatocytes; Rat hepatocytes): 59.08%
